Assay results published in PubChem BioAssay AID248 (DTP/NCI, 2004).
Several values for one entry are separate records, joined by “and”; a condition that tells them apart may be missing. Identical values can stand only once. Inconclusive results and toxic doses are left out. No stated cut-off is given here; in the data, active means T/C of 150% or more; inactive means T/C below 125%.

Test system: L1210 leukemia ip in BDF1 mice, survival T/C
Experiment: NCI In Vivo Anticancer Drug Screen. Data for tumor model L1210 Leukemia (intraperitoneal) in B6D2F1 (BDF1) mice
Details: endpoint: mean survival time, higher = longer survival
Method in brief: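 Value reflects the ratio of survival in compound-treated mice to survival in vehicle-treated controls, with both groups carrying the same transplanted tumor.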

[1] = dose: 100.0 mg/kg/injection, schedule: Q01DX001 (ip), vehicle: saline
[2] = dose: 200.0 mg/kg/injection, schedule: Q01DX001 (ip), vehicle: saline
[3] = dose: 400.0 mg/kg/injection, schedule: Q01DX001 (ip), vehicle: saline
[4] = dose: 100.0 mg/kg/injection, schedule: Q04DX003 (ip), vehicle: Klucel (hydroxypropylcellulose) (HPC)
[5] = dose: 200.0 mg/kg/injection, schedule: Q04DX003 (ip), vehicle: Klucel (hydroxypropylcellulose) (HPC)
[6] = dose: 400.0 mg/kg/injection, schedule: Q04DX003 (ip), vehicle: Klucel (hydroxypropylcellulose) (HPC)
[7] = dose: 50.0 mg/kg/injection, schedule: Q01DX001 (ip), vehicle: saline
[8] = dose: 100.0 mg/kg/injection, schedule: Q01DX009 (ip), vehicle: Klucel (hydroxypropylcellulose) (HPC)
[9] = dose: 200.0 mg/kg/injection, schedule: Q01DX009 (ip), vehicle: Klucel (hydroxypropylcellulose) (HPC)
[10] = dose: 400.0 mg/kg/injection, schedule: Q01DX009 (ip), vehicle: Klucel (hydroxypropylcellulose) (HPC)
[11] = dose: 100.0 mg/kg/injection, schedule: Q04DX003 (ip), vehicle: saline
[12] = dose: 200.0 mg/kg/injection, schedule: Q04DX003 (ip), vehicle: saline

Measured: T/C

O=C/C(Br)=C(\Br)C(=O)O
inactive: dose: 12.5 mg/kg/injection, schedule: Q01DX001 (ip), vehicle: carboxymethylcellulose (CMC) 93 % of control | dose: 12.5 mg/kg/injection, schedule: Q01DX009 (ip), vehicle: carboxymethylcellulose (CMC) 95 % of control | dose: 12.5 mg/kg/injection, schedule: Q04DX002 (ip), vehicle: carboxymethylcellulose (CMC) 97 % of control | dose: 12.5 mg/kg/injection, schedule: Q04DX003 (ip), vehicle: carboxymethylcellulose (CMC) 97 % of control | dose: 25.0 mg/kg/injection, schedule: Q01DX001 (ip), vehicle: carboxymethylcellulose (CMC) 93 % of control | dose: 25.0 mg/kg/injection, schedule: Q01DX009 (ip), vehicle: carboxymethylcellulose (CMC) 98 % of control and 92 % of control | dose: 25.0 mg/kg/injection, schedule: Q04DX002 (ip), vehicle: carboxymethylcellulose (CMC) 93 % of control and 98 % of control | dose: 25.0 mg/kg/injection, schedule: Q04DX003 (ip), vehicle: carboxymethylcellulose (CMC) 103 % of control | dose: 50.0 mg/kg/injection, schedule: Q01DX001 (ip), vehicle: carboxymethylcellulose (CMC) 106 % of control | dose: 50.0 mg/kg/injection, schedule: Q01DX009 (ip), vehicle: carboxymethylcellulose (CMC) 96 % of control | dose: 50.0 mg/kg/injection, schedule: Q04DX002 (ip), vehicle: carboxymethylcellulose (CMC) 90 % of control

O=C(CCl)N1CCN(C(=O)CCl)c2ccccc21
inactive: [1] 94 % of control | [2] 94 % of control | [3] 97 % of control

COC(=O)C1C(=O)OC(C)(C)C1c1ccccc1 (centres undefined)
inactive: dose: 44.0 mg/kg/injection, schedule: Q01DX001 (ip), vehicle: saline 95 % of control | dose: 66.0 mg/kg/injection, schedule: Q01DX001 (ip), vehicle: saline 101 % of control | [1] 100 % of control | dose: 150.0 mg/kg/injection, schedule: Q01DX001 (ip), vehicle: saline 103 % of control | [2] 91 % of control | [3] 91 % of control

O=C1C[C@H]2CCCC[C@@H]2O1
inactive: dose: 75.0 mg/kg/injection, schedule: Q01DX001 (ip), vehicle: other 107 % of control | dose: 150.0 mg/kg/injection, schedule: Q01DX001 (ip), vehicle: other 105 % of control | dose: 300.0 mg/kg/injection, schedule: Q01DX001 (ip), vehicle: other 102 % of control

SCc1ccccc1
inactive: [1] 91 % of control | [2] 111 % of control | [3] 105 % of control

CC(=O)C1CCC2C3CC=C4CC(O)C=CC4(C)C3CCC12C (centres undefined)
inactive: [4] 92 % of control | [5] 96 % of control | [6] 92 % of control

COc1cc([N+](=O)[O-])c(C)cc1Nc1ccc(OC)c(OC)c1
inactive: dose: 100.0 mg/kg/injection, schedule: Q01DX009 (ip), vehicle: saline with Tween-80 105 % of control | dose: 100.0 mg/kg/injection, schedule: Q04DX003 (ip), vehicle: saline with Tween-80 98 % of control | dose: 200.0 mg/kg/injection, schedule: Q01DX009 (ip), vehicle: saline with Tween-80 96 % of control | dose: 200.0 mg/kg/injection, schedule: Q04DX003 (ip), vehicle: saline with Tween-80 93 % of control | dose: 400.0 mg/kg/injection, schedule: Q01DX009 (ip), vehicle: saline with Tween-80 96 % of control | dose: 400.0 mg/kg/injection, schedule: Q04DX003 (ip), vehicle: saline with Tween-80 92 % of control

CC1=[N+](CCS(C)(=O)=O)C(C)CCC1 (centres undefined)
inactive: [7] 115 % of control | [1] 110 % of control | [2] 106 % of control | [3] 106 % of control

CCc1ccccc1NC(=O)Nc1ccccc1OC
inactive: [8] 92 % of control | [4] 93 % of control | [9] 94 % of control | [5] 93 % of control | [10] 100 % of control | [6] 90 % of control

Cc1ccccc1/C(=C/c1ccc([N+](=O)[O-])cc1)C(=O)O
inactive: [8] 95 % of control | [9] 108 % of control | [10] 104 % of control

Oc1ccc2ccccc2c1C(c1ccccc1)c1c(O)ccc2ccccc12
inactive: dose: 87.5 mg/kg/injection, schedule: Q04DX003 (ip), vehicle: carboxymethylcellulose (CMC) 106 % of control | dose: 175.0 mg/kg/injection, schedule: Q04DX003 (ip), vehicle: carboxymethylcellulose (CMC) 95 % of control | dose: 350.0 mg/kg/injection, schedule: Q04DX003 (ip), vehicle: carboxymethylcellulose (CMC) 111 % of control

O=c1[nH]c(=O)n(C2OC(CO)C(O)C2O)cc1CCC(F)F (centres undefined)
inactive: dose: 100.0 mg/kg/injection, schedule: Q04DX002 (ip), vehicle: other 105 % of control | dose: 200.0 mg/kg/injection, schedule: Q04DX002 (ip), vehicle: other 102 % of control

Cc1ccccc1C(c1ccccc1)N(C)C (centres undefined)
inactive: [7] 100 % of control | [1] 96 % of control | [2] 96 % of control | [3] 92 % of control

CCC#CC(O)(C(=O)OC)c1ccccc1 (centres undefined)
inactive: dose: 100.0 mg/kg/injection, schedule: Q01DX001 (ip), vehicle: carboxymethylcellulose (CMC) 100 % of control | dose: 200.0 mg/kg/injection, schedule: Q01DX001 (ip), vehicle: carboxymethylcellulose (CMC) 108 % of control | dose: 400.0 mg/kg/injection, schedule: Q01DX001 (ip), vehicle: carboxymethylcellulose (CMC) 96 % of control

COc1cc(C(=O)NCC(=O)O)cc(OC)c1OC
inactive: dose: 100.0 mg/kg/injection, schedule: Q01DX009 (ip), vehicle: saline 86 % of control | [11] 107 % of control | dose: 200.0 mg/kg/injection, schedule: Q01DX009 (ip), vehicle: saline 86 % of control | [12] 98 % of control | dose: 400.0 mg/kg/injection, schedule: Q04DX003 (ip), vehicle: saline 95 % of control

CCN(CC)CC(=O)NCC(CC)(CCN1CCOCC1)c1cccc2ccccc12 (centres undefined)
inactive: [11] 97 % of control | [12] 95 % of control

O=c1cccc2n1Cc1cc3ccccc3nc1-2
inactive: dose: 37.5 mg/kg/injection, schedule: Q04DX003 (ip), vehicle: saline 95 % of control | dose: 75.0 mg/kg/injection, schedule: Q04DX003 (ip), vehicle: saline 89 % of control

CN(C)N=Nc1c[nH]c(=O)[nH]c1=O
inactive: dose: 10.0 mg/kg/injection, schedule: Q01DX001 (ip), vehicle: saline 108 % of control | dose: 20.0 mg/kg/injection, schedule: Q01DX001 (ip), vehicle: saline 120 % of control | dose: 40.0 mg/kg/injection, schedule: Q01DX001 (ip), vehicle: saline 123 % of control

CCN(N=O)C(=O)NC1C(O)OC(CO)C(O)C1O (centres undefined)
inactive: dose: 25.0 mg/kg/injection, schedule: Q01DX009 (ip), vehicle: other 100 % of control | dose: 50.0 mg/kg/injection, schedule: Q01DX009 (ip), vehicle: other 118 % of control | dose: 100.0 mg/kg/injection, schedule: Q01DX009 (ip), vehicle: other 113 % of control | dose: 200.0 mg/kg/injection, schedule: Q01DX009 (ip), vehicle: other 112 % of control

CCCc1cccc[n+]1CC(=O)c1ccccc1
inactive: dose: 6.25 mg/kg/injection, schedule: Q01DX009 (ip), vehicle: saline sonified 115 % of control | dose: 12.5 mg/kg/injection, schedule: Q01DX009 (ip), vehicle: saline sonified 107 % of control | dose: 25.0 mg/kg/injection, schedule: Q01DX009 (ip), vehicle: saline sonified 91 % of control
